Read-outs that look alike come from different tables or passages of the source.

The conditions of data set [1]: 25 °C, cited from earlier work.
Data set [2] in a line: Stability constant of Sc(III) complex by 1H and 45Sc NMR batch samples and pH-potentiometric titration; pSc calculation. In kind it is physicochemical. The note with it: for pSc (-log[Sc(III)]free): [Sc(III)]tot = 1 × 10^−8 M, [L]tot = 1 × 10^−7 M, pH = 7.4. On the procedure:
The stability constant of the Sc(DO3AM-NI) complex was assessed by ^1H and ^45Sc-NMR studies using samples prepared in the 0.055–0.195 M acid concentration range. […] Absence of protonation and the presence of a ternary hydroxydo species formation with KScL•OH = 10.88(5) were detected at our experimental conditions. The NMR samples contained 3.32 mM ligand, ScCl3 and a constant ionic strength of 0.15 M NaCl. The samples were thermostated at 37 °C, and their ^1H- and ^45Sc-NMR spectra were recorded after 60 days. In order to ensure that the equilibrium in the samples was attained, the ^1H and ^45Sc-NMR measurements were repeated again 90 days later. The spectra were practically identical with the spectra recorded at 60 days (Figures S4 and S5). As expected, the thermodynamic stability constant of the Sc(DO3AM-NI) complex (log KScL = 22.36(4)) was considerably lower than those of Sc(III) complexes formed with DOTA, DTPA or AAZTA ligands (Table 1). A moderate decrease in terms of thermodynamic stability constants was already observed for the complexes of DO3A-monamides formed with Gd(III) ions in comparison to the stability of parent Gd(DOTA)^− chelate. Despite the lower stability constant of the complex, the Sc(III) ion was complexed completely around pH = 2.0 (in a millimolar concentration range, see Figure 2). However, it might be misleading to directly compare the stability constants of the complexes formed by ligands of different basicity (as it depends on the basicity of the ligand); therefore, we calculated and compared the pSc values (which could be treated as conditional constants) for the complexes shown in Table 1 by taking the protonation constants of ligands, the stability constants of the complex species present in solution and the hydrolysis of the Sc(III) ion (according to Ref. [23]: log βSc(OH) = −4.3, log βSc(OH)2 = −9.7, log βSc(OH)3 = −16.1, log βSc(OH)4 = −26.0 and log βSc2(OH)4 = −6.0) into account.
(§1) The equilibrium measurements were performed at constant ionic strength maintained by 0.15 M NaCl at 37 °C. For determining the protonation constants of DO3AM-NI, two parallel pH-potentiometric titrations were performed with 0.1611 M NaOH in a 5.00 cm^3 sample containing the ligand at the concentration of 2.76 mM. The stability constant of Sc(DO3AM-NI) was assessed by ^1H and ^45Sc NMR in 0.7 mL “batch” samples containing the metal and the ligand at 3.32 mM and different concentrations of strong acid (0.05–0.20 M) aged 90 days (see below). The formation of protonated and ternary hydroxydo complex species was probed by pH-potentiometric titration by titrating the preformed complex (at a concentration of 1.95 mM) with standardized NaOH solution. For the calculation of the logKMH-1L value, the VNaOH–pH data used were obtained in the pH range 1.68–11.85. The pH-potentiometric titrations were carried out with a Metrohm 785 DMP Titrino titration workstation with the use of a Metrohm-6.0233.100-combined electrode calibrated via a two-point calibration routine using KH-phthalate (pH = 4.005) and borax (pH = 9.177) buffers. The titrated samples were stirred with a magnetic stirrer, and N2 gas was bubbled through the solutions to avoid the effect of CO2. For the calculation of [H^+] from the measured pH values, the method proposed by Irving et al. was applied. For this, a 0.01M HCl solution was titrated with the standardized NaOH solution in the presence of 0.15 M NaCl ionic strength at 37 °C. The differences between the measured (pHread) and calculated pH (-log[H^+]) values were used to obtain the equilibrium H^+ concentration from the pHmeas values during the titrations. […] For the calculation of the equilibrium constants, the PSEQUAD program was used.
^1H- and ^45Sc-NMR measurements (400 MHz and 97 MHz, respectively) were performed with a Bruker DRX 400 (9.4 T) spectrometer equipped with a Bruker VT-1000 thermocontroller and a BB inverse z-gradient probe (5 mm). […]

For data set [3] the following is noted: 25 °C, cited from earlier work. This is another data set of the same source.
The nature of data set [4]: pH-potentiometric determination of ligand protonation constants. The following applies: 0.15 M NaCl, 37 °C. In kind it is physicochemical. On the procedure:
Equilibrium measurements were commenced by determining the protonation constants of the ligand, measured at 37 °C (I = 0.15 M NaCl) owing to the relevance of the chelate under in vivo conditions. The protonation constants obtained by fitting the pH-potentiometric data for the ligand DO3AM-NI are shown in Table 1 along with the literature data published for DOTA and certain DO3A-monoamides (DO3A-mono-N-buthylamide as well as that of a hypoxia-sensitive MRI probe reported by some of us a couple of years ago). Five protonation steps were observed by performing the titration in the pH range of 1.72–11.85 for the DO3AM-NI monoamide type ligand, two of which (characterized by high constants) describe the protonation of nitrogen atoms in the macrocycle (positioned trans- to each other), while the remaining log Ki^H values (much lower) likely reflect the protonation of the carboxylates. The replacement of an acetate group of DOTA by an amide moiety results in a decrease in the protonation sites of the ligand, and as a consequence the overall basicity of the ligand (expressed as the sum of the protonation constants, log β015) was as expected, predicted from the data published in literature. What is more, the formation of a weak Na^+ complex (originating from the ionic strength) competing with the first protonation process may be responsible of the lower value of the first protonation constant.
as §1

[5] abbreviates: constants at 0.1 M Me4NCl, 25 °C from Ref. 19.

For the molecule `O=C(O)CN(CCN(CC(=O)O)CC(=O)O)CCN(CC(=O)O)CC(=O)O` [DTPA], in data set [1] (0.1 M Me4NCl), the “log KScL•H (protonation constant of Sc(III) complex)” value (“log KScL•H” below) is 1.36, the “log KScL•OH (ternary hydroxydo species)” value is listed as 12.44 and the “log KSc•L (stability constant of Sc(III) complex)” value (from here on “log KSc•L”) is 27.43. The “pSc (-log[Sc(III)]free)” value in data set [2] (setting [5]) is 23.88. Moreover, in data set [3] (0.1 M Me4NCl), the “log K1^H” value is given as 10.65, the “log K2^H” value was 8.66, the “log K3^H” value is given as 4.36 and the “log K4^H” value is 2.82. In data set [3] (0.1 M Me4NCl), the “log K5^H” value was 2.03, the “log K6^H” value is 1.31, the “log K7^H” value is 1.30 and the “log β015 (sum of the protonation constants)” value (“log β015” for short) is reported as 28.52.

For `CC1(N(CC(=O)O)CC(=O)O)CN(CC(=O)O)CCN(CC(=O)O)C1` [AAZTA], in data set [1] (0.1 M KCl), the “log KScL•H” value is 0.86 and the “log KSc•L” value was 27.69. In addition, the “pSc (-log[Sc(III)]free)” value in data set [2] (constants at 0.1 M KCl, 25 °C from Ref. 20) is given as 24.72. Further, in data set [3] (0.1 M KCl), the “log K1^H” value was 11.26, the “log K2^H” value is 6.62, the “log K3^H” value is reported as 3.86 and the “log K4^H” value was 2.45. Moreover, in data set [3] (0.1 M KCl), the “log K5^H” value is on record as 1.88 and the “log K6^H” value is given as 1.46.

Turning to `CCCCNC(=O)CN1CCN(CC(=O)O)CCN(CC(=O)O)CCN(CC(=O)O)CC1` [DO3AM^nBu, DO3A-mono-N-buthylamide], in data set [3] (1.0 M KCl), the “log K1^H” value is 9.78, the “log K2^H” value is given as 9.05, the “log K3^H” value was 4.53 and the “log K4^H” value is recorded as 3.17. In addition, in data set [3] (1.0 M KCl), the “log K5^H” value is 2.19 and the “log β015” value is given as 28.72.

Consider `O=C(O)CN1CCN(CC(=O)O)CCN(CC(=O)NCCn2ccnc2[N+](=O)[O-])CCN(CC(=O)O)CC1` [DO3AM-NI], for which, in data set [4], the “log K1^H” value is given as 8.79(1), the “log K2^H” value is 8.59(1), the “log K3^H” value is on record as 4.23(1) and the “log K4^H” value is 2.49(1). In data set [4], the “log K5^H” value is given as 1.00(4) and the “log β015” value is 25.10. In data set [2] (0.15 M NaCl, 37 °C), the “log KScL•OH (ternary hydroxydo species)” value is given as 10.88(5) and the “log KSc•L” value is listed as 22.36(4). Also, in data set [2] (constants at 0.15 M NaCl, 37 °C), the “pSc (-log[Sc(III)]free)” value is reported as 20.74.

For `O=C(O)CN1CCN(CC(=O)O)CCN(CC(=O)O)CCN(CC(=O)O)CC1` [DOTA, 1,4,7,10-tetraazacyclododecane-1,4,7,10-tetraacetic acid], in data set [1] (0.1 M Me4NCl), the “log KScL•H” value is 1.00 and the “log KSc•L” value is 30.79. Moreover, the “pSc (-log[Sc(III)]free)” value in data set [2] (setting [5]) is on record as 23.92. In data set [3] (0.1 M Me4NCl), the “log K1^H” value is on record as 12.90, the “log K2^H” value was 9.72, the “log K3^H” value is listed as 4.62 and the “log K4^H” value is listed as 4.15. In data set [3] (0.1 M Me4NCl), the “log K5^H” value was 2.29, the “log K6^H” value is reported as 1.34 and the “log β015” value is given as 33.68.
